This note sets out measurements from ChEMBL document CHEMBL2396588, “Synthesis, biological evaluation and molecular modeling of substituted 2-aminobenzimidazoles as novel inhibitors of acetylcholinesterase and butyrylcholinesterase” (Bioorg Med Chem, 2013).

One data set concerns PC-12. Description: Cytotoxicity against rat PC12 cells assessed as cell viability at 100 uM after 48 hrs by MTT assay. The data set is classed as cell-based. The note with it: pc-12, 48 h. (Tetrazolium dyes change colour on reduction, which living cells bring about.)
The next data set has as its target Cholinesterase (Homo sapiens, UniProt P06276). Description: Inhibition of human BuChE using butyrylthiocholine iodide as substrate incubated for 20 mins prior to substrate addition measured for 1 hr by Ellman's method.
The target in the next data set is Acetylcholinesterase (Homo sapiens, UniProt P22303). Kind of data set: Inhibition of human AchE using acetylthiocholine iodide as substrate incubated for 20 mins prior to substrate addition measured for 1 hr by Ellman's method. In general terms: Ellman's reagent forms a yellow product with free thiols.
Acetylcholinesterase, sequence (P22303 whole entry): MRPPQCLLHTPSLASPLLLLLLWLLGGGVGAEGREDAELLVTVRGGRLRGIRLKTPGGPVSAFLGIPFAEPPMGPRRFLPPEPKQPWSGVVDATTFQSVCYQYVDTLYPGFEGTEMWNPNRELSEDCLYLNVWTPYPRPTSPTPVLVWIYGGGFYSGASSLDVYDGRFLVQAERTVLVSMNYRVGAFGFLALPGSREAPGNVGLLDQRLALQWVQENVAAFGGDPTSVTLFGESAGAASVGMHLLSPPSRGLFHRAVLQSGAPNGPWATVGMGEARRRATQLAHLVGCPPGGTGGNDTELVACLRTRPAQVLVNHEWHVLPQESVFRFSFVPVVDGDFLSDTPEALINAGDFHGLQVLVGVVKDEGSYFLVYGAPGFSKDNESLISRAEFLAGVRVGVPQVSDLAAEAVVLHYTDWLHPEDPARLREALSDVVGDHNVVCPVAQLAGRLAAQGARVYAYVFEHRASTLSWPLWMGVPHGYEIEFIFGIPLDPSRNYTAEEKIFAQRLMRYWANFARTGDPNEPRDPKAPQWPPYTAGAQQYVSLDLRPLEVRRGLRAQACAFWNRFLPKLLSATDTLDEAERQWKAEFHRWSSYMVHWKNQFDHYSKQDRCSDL
Another data set relates to HepG2. Kind of data set: (§1) Cytotoxicity against human HepG2 cells assessed as cell viability at 100 uM after 48 hrs by MTT assay. As to conditions: hepg2, 48 h, 100 µM. The data set is classed as cell-based.
For another data set, the species on record is Homo sapiens. Description: Selectivity ratio of IC50 for human AChE to IC50 for human BuChE.
The nature of data set [1]: as §1. The data set is classed as cell-based. The note with it: HepG2 cells, read-out: Activity.

Cholinesterase, sequence (P06276 whole entry): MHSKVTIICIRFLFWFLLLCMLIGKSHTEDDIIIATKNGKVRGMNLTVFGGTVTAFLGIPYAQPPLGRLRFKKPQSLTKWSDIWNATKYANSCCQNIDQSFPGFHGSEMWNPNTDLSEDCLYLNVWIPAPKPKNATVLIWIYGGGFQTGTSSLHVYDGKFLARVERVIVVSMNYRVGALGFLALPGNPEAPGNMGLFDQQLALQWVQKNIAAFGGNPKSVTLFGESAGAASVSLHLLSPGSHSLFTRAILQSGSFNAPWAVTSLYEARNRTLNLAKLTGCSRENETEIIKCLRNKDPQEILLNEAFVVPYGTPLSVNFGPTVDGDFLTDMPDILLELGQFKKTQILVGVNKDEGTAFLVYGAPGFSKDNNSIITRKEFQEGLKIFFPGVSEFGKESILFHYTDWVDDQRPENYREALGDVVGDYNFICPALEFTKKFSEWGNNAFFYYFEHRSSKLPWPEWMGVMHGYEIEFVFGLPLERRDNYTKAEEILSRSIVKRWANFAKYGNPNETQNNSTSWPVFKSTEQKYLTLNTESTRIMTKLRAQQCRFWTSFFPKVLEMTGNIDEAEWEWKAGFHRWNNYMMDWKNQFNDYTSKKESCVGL

Regarding `c1ccc2[nH]c(N3CCCCC3)nc2c1`, the Activity entry with PC-12 and with HepG2 was “Non-toxic” throughout. Besides, the values for the IC50 on Cholinesterase and on Acetylcholinesterase were 1.57 µM and 59.2 µM, respectively. Besides, the Ratio IC50 in the data set filed under Homo sapiens stood at 37.7.

With `CCCCNc1nc2ccccc2n1C`, the Activity entry with PC-12 and in the data set with HepG2 was “Non-toxic” throughout. The IC50 against Cholinesterase and at Acetylcholinesterase was > 100 µM in each case.

For the compound `c1ccc2[nH]c(NC34CC5CC(CC(C5)C3)C4)nc2c1`, the Activity result in the data set with PC-12 and with HepG2 was “Non-toxic” each time. Further, the IC50 at Cholinesterase and at Acetylcholinesterase was > 100 µM each time.

Take `CC(C)(C)OC(=O)NCCNc1nc2ccccc2[nH]1`: the Activity entry in the data set with PC-12 and in the data set with HepG2 was “Non-toxic” throughout. In addition, the IC50 is 71.9 µM on Cholinesterase and > 100 µM on Acetylcholinesterase.

`CCCCNc1nc2ccccc2[nH]1`: the IC50 on Cholinesterase is 61 µM; against Acetylcholinesterase, > 100 µM. Also, in data set [1], the viability at 48 h, 100 µM stood at 85.2%.

Consider `CC1CCCCN1c1nc2ccccc2[nH]1` (configuration not stated), for which the Activity entry in the data set with PC-12 and with HepG2 was “Non-toxic” in each case. In addition, the IC50 was determined as 2.03 µM on Cholinesterase and 88.9 µM against Acetylcholinesterase. The Ratio IC50 in the data set filed under Homo sapiens is 43.8.

For the compound `c1ccc2c(c1)CCCN2c1nc2ccccc2[nH]1`, the Activity entry in the data set with PC-12 and in the data set with HepG2 was “Non-toxic” each time. Also, the IC50 against Cholinesterase and against Acetylcholinesterase was > 100 µM each time.

On to `CN(C)CCCN(c1nc2ccccc2[nH]1)c1nc2ccccc2[nH]1`, for which the Activity result in the data set on PC-12 and in the data set with HepG2 was “Non-toxic” throughout. For the same compound, the IC50 on Cholinesterase came to 2.26 µM; against Acetylcholinesterase, 59.7 µM. For the same compound, the Ratio IC50 in the data set filed under Homo sapiens stood at 26.4.

As for `CCN(CC)CCCNc1nc2ccccc2[nH]1`, the Activity entry in the data set on PC-12 and in the data set with HepG2 was “Non-toxic” each time. Moreover, the IC50 at Cholinesterase and against Acetylcholinesterase was > 100 µM throughout.

As for `c1ccc(CCCNc2nc3ccccc3[nH]2)cc1`, the Activity entry in the data set with PC-12 and with HepG2 was “Non-toxic” in each case. Moreover, the half-maximal inhibitory concentration (IC50) against Cholinesterase and against Acetylcholinesterase was > 100 µM in each case.

On to `COCCNc1nc2ccccc2[nH]1`, for which the Activity result in the data set on PC-12 and in the data set with HepG2 was “Non-toxic” throughout. Besides, the IC50 against Cholinesterase and on Acetylcholinesterase was > 100 µM each time.

With `CCCCN(C)c1nc2ccccc2[nH]1`, the Activity entry in the data set with PC-12 and with HepG2 was “Non-toxic” in each case. The IC50 at Cholinesterase and against Acetylcholinesterase was > 100 µM in each case.

Turning to `CCCCN(C)c1nc2ccccc2n1C`, the Activity result in the data set on PC-12 and in the data set on HepG2 was “Non-toxic” throughout. Further, the IC50 on Cholinesterase and on Acetylcholinesterase was > 100 µM in each case.

Turning to `NCCNc1nc2ccccc2[nH]1`, the Activity entry in the data set with PC-12 and in the data set with HepG2 was “Non-toxic” in each case. The IC50 against Cholinesterase and against Acetylcholinesterase was > 100 µM each time.

`c1ccc(Nc2nc3ccccc3[nH]2)nc1`: the Activity result in the data set with PC-12 and with HepG2 was “Non-toxic” each time. Moreover, the IC50 against Cholinesterase and at Acetylcholinesterase was > 100 µM throughout.

A word on the IC50: it is the concentration needed to halve the response being measured.
